Laboratory results as given in PMC3294087 (Journal of Immunology (Baltimore, Md. : 1950), 2012).
Like-named read-outs stand apart in the source and are kept apart here.

Key:
[1] = tested on: Candida albicans (Berkhout anamorph, ATCC # MYA-3573); type: cell-based; details: mean of three experiments
[2] = tested on: Staphylococcus aureus (Wood 46 strain; ATCC# 10832); type: cell-based; details: 30 min at 37°C in PBS, mean of three experiments
[3] = tested on: Phil82 strain of IAV (A/Phillipines/82(H3N2)); assay: Fluorescent focus assay on A549 cells; type: cell-based, influenza A virus; details: mean±SEM of 4 experiments

Row | Molecule | C. albicans % of Control Colonies ([1]; 1.25 μg/ml) [%] | C. albicans % of Control Colonies ([1]; 2.5 μg/ml) [%] | C. albicans % of Control Colonies ([1]; 20 μg/ml) [%] | S. aureus % of Control Colonies ([2]; 1.25 μg/ml) [%] | S. aureus % of Control Colonies ([2]; 2.5 μg/ml) [%] | S. aureus % of Control Colonies ([2]; 20 μg/ml) [%] | Neutralizing activity (infectious foci, control = 100%) ([3]; SP-D 5 ng/ml alone) [%] | Neutralizing activity (infectious foci, control = 100%) ([3]; SP-D 10 ng/ml alone) [%]
1 | HNP1: human neutrophil α-defensin | 81±5 | 61±4 | 61±2 | 202±5 | 151±4 | 71±1 |  | 
2 | SP-D: Recombinant human pulmonary surfactant protein D, dodecameric fraction, produced in CHO-K1 cells (protein, UniProt P35247 21-375, looked up, dodecameric fraction) Pulmonary …: AEMKTYSHRTMPSACTLVMCSSVESGLPGRDGRDGREGPRGEKGDPGLPGAAGQAGMPGQAGPVGPKGDNGSVGEPGPKGDTGPSGPPGPPGVPGPAGREGPLGKQGNIGPQGKPGPKGEAGPKGEVGAPGMQGSAGARGLAGPKGERGVPGERGVPGNTGAAGSAGAMGPQGSPGARGPPGLKGDKGIPGDKGAKGESGLPDVASLRQQVEALQGQVQHLQAAFSQYKKVELFPNGQSVGEKIFKTAGFVKPFTEAQLLCTQAGGQLASPRSAAENAALQQLVVAKNEAAFLSMTDSKTEGKFTYPTGESLVYSNWAPGEPNDDGGSEDCVEIFTNGKWNDRACGEKRLVVCEF |  |  |  |  |  |  | 74±10 | 50±6
